From patent US20230257373A1, “QUORUM SENSING INHIBITORS AND METHODS OF USE” (priority 2020, published 2023)
Like-named read-outs stand apart in the source and are kept apart here.

Tests used:
[1] = tested on: PluxC-gfp reporter in V. coralliilyticus; test: PluxC-gfp reporter in V. coralliilyticus strains
V. cholerae = test: Quorum sensing reporter in V. cholerae; conditions: even at high concentrations
[2] = tested on: V. campbellii protease activity; test: Protease assay (azocasein) in V. campbellii; conditions: 2.5 μM PTSP vs DMSO
V. campbellii = test: Growth of V. campbellii with inhibitor; type: cell-based; conditions: high concentrations
Text: Many sulfonamide-containing compounds are known to target the folate synthesis pathway in bacteria and inhibit growth (bacteriostatic), and thus these “sulfa drugs” have been used as broad-spectrum antibiotics for decades (Hammoudeh et al., 2013, Roland et al., 1979). […] We also tested the stability of the inhibitors in bacterial cultures and the timing of the inhibitory effect.

LuxR [3] = biological target: T1, LuxR (Vibrio harveyi, UniProt P21308); test: ITC analysis of LuxR interaction with inhibitors; type: binding, V. campbellii; set-up: made in house; host or cells: E. coli BL21(DE3)
Text: To test the validity of the modelling predictions for PTSP, we performed isothermal titration calorimetry (ITC) to determine the binding affinity of SmcR and LuxR for PTSP. […] We noted that PTSP binding to both LuxR and SmcR had lower entropy and enthalpy compared to SmcR binding to Qstatin. […] Thus, we conclude that the efficacy of PTSP inhibition in vivo in these two Vibrio species correlates to the binding affinity determined in vitro for these two proteins.
SmcR and LuxR were purified as described previously. EMSAs were conducted as described previously using oligonucleotides corresponding to the luxC and vvpE promoter sequences. ITC analysis was conducted using purified LuxR or His-tagged SmcR, each in gel-filtration buffer (25 mM Tris pH 7.5, 300 mM NaCl, 0.5 mM EDTA, 1 mM DTT, 2% DMSO). All molecules analyzed were diluted in the same buffer. The samples were degassed for 10 min by vacuum aspiration. Titrations were performed on a Nano-ITC (TA Instruments). […] Thermograms were analyzed using NanoAnalyze software with the independent binding model.

[4] = tested on: V. vulnificus protease activity; test: Protease assay (azocasein) in V. vulnificus; conditions: for IC50: Vibrio vulnificus
SmcR = SmcR (Vibrio vulnificus, UniProt Q9L8G8); test: E. coli bioassay expressing SmcR (IPTG-inducible plasmid); type: cell-based, V. vulnificus
Text: (§1) We hypothesized that there were several possible reasons for the observed difference in PTSP inhibition in the various Vibrio species, including but not limited to: 1) differences in LuxR-inhibitor interaction(s), 2) differences in diffusion of the inhibitor across the membranes, or 3) stability of the inhibitor in the cell and/or cell culture. To examine PTSP activity in a common strain background, we cloned the luxR gene from each Vibrio species into a plasmid under control of an IPTG-inducible promoter and assayed the effect of PTSP against these proteins in the E. coli bioassay. […] We conclude that the differences in PTSP activity in Vibrio species is due to differences in interaction between PTSP and the LuxR-type protein in each Vibrio.
(§2) We therefore sought to determine if any of the four residues that differ between HapR and LuxR/SmcR in the putative ligand binding pocket are sufficient to render SmcR insensitive to PTSP. First, we introduced substitutions in SmcR to mimic the amino acid sequence of HapR: F75Y, I96L, […], and C170F. […] Next, we introduced single substitutions in HapR to mimic the amino acid present in SmcR: Y76F, L97I, I141V, and F171C.
(§3) In E. coli assays expressing the five different LuxR-type proteins (luxR, smcR, opaR, vcpR, hapR), slight changes to the protocol were implemented. The luxR genes were cloned under control of the IPTG-inducible Ptac promoter in plasmid pMMB67EH-kanR. […] Strains expressing hapR or smcR required 50 μM IPTG to observe activation of the GFP reporter; IPTG was not added to strains expressing luxR, vcpR, or opaR.

LuxR [5] = biological target: T1, LuxR; test: E. coli bioassay expressing LuxR (IPTG-inducible plasmid); type: cell-based, V. campbellii; set-up: expressed in transfected cells; host or cells: E. coli DH10B with pMMB67EH-kanR derivative and pJV064; conditions: 25 μM PTSP
Text: as §1, §3

HapR = test: E. coli bioassay expressing HapR (IPTG-inducible plasmid); type: cell-based, V. cholerae
Text: as §1, §2, §3

[6] = tested on: PluxC-gfp reporter in V. vulnificus; test: PluxC-gfp reporter in V. vulnificus strains; conditions: Vibrio vulnificus
OpaR = test: E. coli bioassay expressing OpaR (IPTG-inducible plasmid); type: cell-based, V. parahaemolyticus; conditions: 25 μM PTSP
Text: as §1, §3

[7] = tested on: PluxC-gfp reporter in V. campbellii; test: PluxC-gfp reporter in V. campbellii strains; conditions: Vibrio campbellii
Vibrio strains = test: luxCDABE reporter across five Vibrio species; conditions: each Vibrio strain except V. cholerae

Question: Which results are given for `O=S(=O)(c1cccs1)n1ccc(-c2ccccc2)n1` [Compound 10B]?
Answer: IC50 ([1]; read-out: IC50, V. coralliilyticus OCN008, luxCDABE reporter plasmid): 2200 nM; IC50 ([1]; read-out: Inhibition (IC50) of the PluxC-gfp reporter, Vcoral OCN 008): 1430 nM; IC50 ([1]; read-out: Inhibition (IC50) of the PluxC-gfp reporter, Vcoral OCN 014): 2370 nM; Inhibition in V. cholerae (in words) (V. cholerae): not active; Protease activity of wild-type strain [2]: significantly reduced protease activity; Growth rate or growth yield (V. campbellii): did not alter growth rate or growth yield; Ka (LuxR [3]): 2.3e+06 M⁻¹; ΔG (LuxR [3]): -8.626 kcal/mol; ΔH (LuxR [3]): -32.529 kcal/mol; ΔS (LuxR [3]): −335.40 J/mol · K; −TΔS (LuxR [3]): 23.9 kcal/mol; Kd (LuxR [3]; 25° C.): 513 nM; Protease activity of wild-type strain ([4]; 2.5 μM PTSP vs DMSO, V. vulnificus): significantly reduced protease activity; IC50 ([4]; ATCC27562, read-out: IC50 of protease inhibition, V. vulnificus ATCC 27562): 6.8 nM; IC50 ([4]; read-out: IC50 of protease inhibition, V. vulnificus CMPC6): 78.1 nM; IC50 ([4]; read-out: IC50 of protease inhibition, V. vulnificus YJ016): 18.3 nM; Inhibition of SmcR in E. coli bioassay (SmcR; 25 μM PTSP): inhibited; Inhibition of SmcR C170F (SmcR; SmcR substitution C170F): abolished PTSP inhibition; Inhibition of SmcR F75Y (SmcR; SmcR substitution F75Y): abolished PTSP inhibition; Inhibition of SmcR I96L (SmcR; SmcR substitution I96L): not significantly different from wild-type SmcR; Inhibition of SmcR V1401 (SmcR; SmcR substitution V1401): not significantly different from wild-type SmcR; Inhibition of LuxR in E. coli bioassay (LuxR [5]): inhibited; Inhibition of HapR in E. coli bioassay (HapR; 25 μM PTSP): unresponsive; Inhibition of HapR single substitutions (HapR; HapR Y76F, L97I, I141V, F171C, each alone): none of these substitutions alone were sufficient to make HapR sensitive; Inhibition of HapR Y76F and F171C combination (HapR; combination of Y76F and F171C): did not result in PTSP inhibition; IC50 ([6]; ATCC27562, read-out: IC50, V. vulnificus ATCC 27562, luxCDABE reporter plasmid): 40 nM; IC50 ([6]; ATCC27562, read-out: Inhibition (IC50) of the PluxC-gfp reporter, Vvul ATCC 27562): 1.96 nM; IC50 ([6]; read-out: IC50, V. vulnificus, b235): 2 nM; IC50 ([6]; read-out: IC50 values for all three V. vulnificus clinical isolates, three clinical isolates): 2 to 30 nM; IC50 ([6]; read-out: Inhibition (IC50) of the PluxC-gfp reporter, Vvul CMPC6): 29.5 nM; IC50 ([6]; read-out: Inhibition (IC50) of the PluxC-gfp reporter, Vvul YJ016): 3.78 nM; Inhibition of OpaR in E. coli bioassay (OpaR): inhibited; IC50 ([7]; ATCC25920, read-out: Inhibition (IC50) of the PluxC-gfp reporter, Vcamp ATCC 25920): 30 nM; IC50 ([7]; read-out: IC50, V. campbellii BB120, luxCDABE): 140 nM; IC50 ([7]; read-out: IC50, V. campbellii, b235): 350 nM; IC50 ([7]; read-out: Inhibition (IC50) of the PluxC-gfp reporter, Vcamp HY01): 100 nM; IC50 values lower than Qstatin (Vibrio strains): ~10 fold
